According to US20060051352A1, “CEA binding agents and compositions to reverse CEA-mediated tumorigenic effects on human cancer cells, restore sensitivity to drug induced apoptosis and uses thereof” (priority 2004, published 2006):
Bridge positions count the residues as written; N and C are the ends.

T1: human carcinoembryonic antigen (CEA), wild type (human, UniProt P06731 35-685, glycophosphatidyl inositol (GPI) membrane anchor)
T1 sequence (looked up): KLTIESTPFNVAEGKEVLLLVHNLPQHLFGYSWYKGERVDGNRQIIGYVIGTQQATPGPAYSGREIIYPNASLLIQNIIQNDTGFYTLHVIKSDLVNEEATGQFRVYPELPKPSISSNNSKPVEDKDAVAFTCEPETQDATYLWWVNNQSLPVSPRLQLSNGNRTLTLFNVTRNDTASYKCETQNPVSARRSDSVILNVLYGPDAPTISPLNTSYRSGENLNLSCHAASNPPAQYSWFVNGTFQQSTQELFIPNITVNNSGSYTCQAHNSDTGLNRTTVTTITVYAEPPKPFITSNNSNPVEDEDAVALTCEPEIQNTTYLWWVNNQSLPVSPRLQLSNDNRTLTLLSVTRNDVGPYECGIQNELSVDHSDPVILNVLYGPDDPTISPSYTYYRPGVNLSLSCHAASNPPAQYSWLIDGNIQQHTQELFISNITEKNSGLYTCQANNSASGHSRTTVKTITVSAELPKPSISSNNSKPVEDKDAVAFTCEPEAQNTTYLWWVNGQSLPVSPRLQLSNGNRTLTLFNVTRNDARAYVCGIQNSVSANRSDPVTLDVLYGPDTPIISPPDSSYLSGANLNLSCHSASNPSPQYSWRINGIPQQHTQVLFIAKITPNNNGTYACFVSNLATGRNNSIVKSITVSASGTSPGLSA


Columns and labels:
[1] = tested on: CEA-mediated intercellular adhesion; settings: from references (16), (29); cited from earlier work
[2] = tested on: human colorectal carcinoma cell lines, SW-1222 and LS-180; settings: A20 Fab 100 μg/ml ex vivo, 0.5 mg/dose iv daily day 3-8; taxol 5 nM ex vivo, 5 mg/kg ip day 4; analysis day 9
Protocol: The efficacy was investigated by a treatment protocol in which the ability of the treated cells to conform to normal colonic tissue architecture and to fail to form tumors, was assessed.
Several experiments were conducted in which the effect on two human colorectal carcinoma cell lines (test cells), when mixed in a defined proportion with normal fetal rat colonic cells and grown as aggregates implanted under the kidney capsule of nude mice, of taxol alone, taxol in combination with irrelevant isotype matched control P3X Fabs, and taxol in combination with A20 Fabs, was compared. The test cells in the “mini-colons” that developed after 7-10 days were assessed for either conformance to normal crypt-like tissue architecture or for formation of tumors (43).
With this in mind, the treatment regimen employed subjecting the test cells to the maximum possible dose over the course of the assay. This regimen included three administrations of A20 Fabs to the test cells in the ex vivo portion of the assay (pre-treatment, during which the aggregates are constructed), followed by daily intravenous injections during the in vivo growth of the implanted aggregates (therapeutic treatment). Pre-treatment of the test cells with A20 Fabs at 100 μg/ml commenced on day 0. […]

[3] = tested on: human colorectal carcinoma cells; assay: Lung metastases of human colorectal carcinoma cells in nude mice; format: in vivo; settings: after 30 days; PEG-A20Fab 200 μg iv, Taxol 5 mg/kg ip every 6 days; versus untreated animals
Protocol: Mice were inoculated by intravenous injection of human colorectal carcinoma cells on day 0. Treatment was initiated either immediately following inoculation or 12 hours thereafter. PEGylated A20 Fab fragments (PEG-A20Fab) were administered intravenously (200 μg or 7-8 mg/kg) every day for the first 2 days followed by every 3 days thereafter. Taxol was administered at 5 mg/kg every 6 days (ip). After 30 days, the number of lung surface colonies, representing metastases, were counted.

[4] = target: T1, human carcinoembryonic antigen (CEA), …; assay: cell-based or functional assay

| release of CEA-imposed myogenic differentiation block, % fusion of L6 (CEA) cells at 100 µM peptide [4] | Molecule | other results |
| --- | --- | --- |
| – | H-CQNDTGC-OH (disulfide 1-7; also: synthetic cyclic peptide) [cyclized peptide representing subdomain 3 of the CEA N domain] | inhibition of CEA-mediated intercellular adhesion [1]: effective in inhibiting CEA-mediated intercellular adhesion |
| – | CC(=O)O[C@H]1C(=O)[C@@]2(C)[C@H]([C@H](OC(=O)c3ccccc3)[C@]3(O)C[C@H](OC(=O)[C@H](O)[C@@H](NC(=O)c4ccccc4)c4ccccc4)C(C)=C1C3(C)C)[C@]1(OC(C)=O)CO[C@@H]1C[C@@H]2O [Taxol, Paclitaxel] | tumor growth in mini-colons [2]: much larger, more solid and less differentiated; number of lung surface colonies [3]: no effect |
| 18 % fusion | H-CGYSWYKC-OH (disulfide 1-8; SMILES NCCCC[C@@H]1NC(=O)[C@H](Cc2ccc(O)cc2)NC(=O)[C@H](Cc2c[nH]c3ccccc23)NC(=O)[C@H](CO)NC(=O)[C@H](Cc2ccc(O)cc2)NC(=O)CNC(=O)[C@@H](N)CSSC[C@@H](C(=O)O)NC1=O) [cyclized peptide H-CGYSWYKC-OH (subdomain 1)] | – |
| 28 % fusion | H-CGNRQIIC-OH (disulfide 1-8; SMILES CC[C@H](C)[C@@H]1NC(=O)[C@H](CCC(N)=O)NC(=O)[C@H](CCCNC(=N)N)NC(=O)[C@H](CC(N)=O)NC(=O)CNC(=O)[C@@H](N)CSSC[C@@H](C(=O)O)NC(=O)[C@H]([C@@H](C)CC)NC1=O) [cyclized peptide H-CGNRQIIC-OH (subdomain 2)] | – |
| 36 % fusion | H-CQNDTGC-OH (disulfide 1-7; SMILES C[C@@H](O)[C@@H]1NC(=O)[C@H](CC(=O)O)NC(=O)[C@H](CC(N)=O)NC(=O)[C@H](CCC(N)=O)NC(=O)[C@@H](N)CSSC[C@@H](C(=O)O)NC(=O)CNC1=O) [cyclized peptide H-CQNDTGC-OH (subdomain 3)] | – |
